The numbers were not newly measured in article PMC9736374, “Design, Synthesis and Antimicrobial Properties of New Tetracyclic Quinobenzothiazine Derivatives” (International Journal of Molecular Sciences, 2022), which cites them from elsewhere.

The data set deals with MRSA 63718. On the set-up: method as in PMID 25692135. The settings on record: cited from earlier work.

For the compound `CN[C@H](CC(C)C)C(=O)N[C@H]1C(=O)N[C@@H](CC(N)=O)C(=O)N[C@H]2C(=O)N[C@H]3C(=O)N[C@H](C(=O)N[C@H](C(=O)O)c4cc(O)cc(O)c4-c4cc3ccc4O)[C@H](O)c3ccc(c(Cl)c3)Oc3cc2cc(c3O[C@@H]2O[C@H](CO)[C@@H](O)[C@H](O)[C@H]2O[C@H]2C[C@](C)(N)[C@H](O)[C@H](C)O2)Oc2ccc(cc2Cl)[C@H]1O` [vancomycin], the MIC of vancomycin was 2 µg/mL.
